Experimental data taken from publication PMC4158172 (European Journal of Clinical Pharmacology, 2014).
Where two headings read alike, the source gives them in different places.

Key:
[1] = DTG steady-state plasma pharmacokinetics, interaction with EFV; type: in vivo, human; conditions: for Cmax / AUC / concentration at 24 h / Tmax: both sexes, human, oral, fasting; for AUC: read-out: AUC(0–τ); for concentration at 24 h: read-out: C τ; for Tmax: n=12, median (range)
Description: There was no washout between treatment periods. All doses were administered in the fasting state. […]

[2] = Plasma metabolic profile of DTG (pooled plasma); type: in vivo, human; conditions: individual 24-h proportionally pooled plasma, DTG alone and DTG + EFV
Description: (§1) There was no washout between treatment periods. All doses were administered in the fasting state.
(§2) Urine samples were collected at intervals of 0 to 12 hours and 12 to 24 hours after each treatment period. Individual urine pools were produced for each subject in a given treatment group by combining proportional volumes (% of total volume) from the 0- to 12-hours and 12- to 24-hours collections. Individual pooled human plasma samples were prepared for each subject and treatment group.
Each pooled plasma sample was mixed with aqueous EDTA disodium salt solution (10 mg/mL) and subsequently extracted 3 times with methanol and acetonitrile. Pooled urine samples were lyophilised and the residue was reconstituted in water:methanol (90:10 v/v). Drug-related components in plasma extracts and urine samples were separated on a 100 × 4.6 mm 3.5-micron Symmetry C18 column (Waters Associates) at 40°C by a step-gradient elution method with a mobile phase composition of water:acetonitrile containing 0.1% ammonium acetate starting at 95:5 (v/v) and ending at 5:95 (v/v) over 50 minutes. The eluate was analysed by multistage mass spectrometry (MSn) using an LTQ Orbitrap™ Hybrid Mass Spectrometer with Xcalibur 2.07 software (Thermo Fisher Scientific, Bremen, Germany). […]

[3] = Urinary metabolic profile of DTG (pooled urine); type: in vivo, human; conditions: pooled urine 0-24 h, n=12, mean (standard deviation)
Description: as §1, §2
Each pooled plasma sample was mixed with aqueous EDTA disodium salt solution (10 mg/mL) and subsequently extracted 3 times with methanol and acetonitrile. Pooled urine samples were lyophilised and the residue was reconstituted in water:methanol (90:10 v/v). Drug-related components in plasma extracts and urine samples were separated on a 100 × 4.6 mm 3.5-micron Symmetry C18 column (Waters Associates) at 40°C by a step-gradient elution method with a mobile phase composition of water:acetonitrile containing 0.1% ammonium acetate starting at 95:5 (v/v) and ending at 5:95 (v/v) over 50 minutes. The eluate was analysed by multistage mass spectrometry (MSn) using an LTQ Orbitrap™ Hybrid Mass Spectrometer with Xcalibur 2.07 software (Thermo Fisher Scientific, Bremen, Germany). Data-dependent scanning using an accurate mass list, consisting of all previously characterised metabolites, was used in addition to analysis of pre-dose samples to aid in the distinction of drug-related material from endogenous components.

[4] = Safety evaluations, interaction study with EFV; type: in vivo, human; conditions: healthy subjects n=12
Description: (§3) In both studies, safety evaluations [adverse event (AE) reporting, clinical chemistry laboratory tests, urinalysis, vital signs and electrocardiogram] were performed throughout the study. Given the known hepatotoxicity profile of TPV/r, more frequent monitoring of liver chemistries was performed in the TPV/r study, and conservative stopping criteria were employed such that any subject reaching a grade 2 increase in alanine aminotransferase (ALT) or aspartate aminotransferase (AST) was discontinued from the trial. Both trials were conducted as inpatient studies with subjects housed in the unit for the duration of the study. The studies were conducted in accordance with the principles of the Declaration of Helsinki. A written informed consent was obtained from all subjects, and both protocols were approved by the institutional review board of the study sites.

[5] = Safety evaluations, interaction study with TPV/r; type: in vivo, human; conditions: healthy subjects n=18
Description: as §3

[6] = test system: CYP isozymes; parameters: method as in PMID 23132334; conditions: in vitro; cited from earlier work
[7] = test system: UGT1A1; parameters: method as in PMID 23132334; conditions: in vitro; cited from earlier work
[8] = test system: UGT2B7; parameters: method as in PMID 23132334; conditions: in vitro; cited from earlier work
[9] = test system: P-glycoprotein (P-gp); parameters: method as in PMID 23132334; conditions: in vitro; cited from earlier work
[10] = test system: BCRP; parameters: method as in PMID 23132334; conditions: in vitro; cited from earlier work
[11] = test system: OATP1B3; parameters: method as in PMID 23132334; conditions: in vitro; cited from earlier work
[12] = test system: MRP2; parameters: method as in PMID 23132334; conditions: in vitro; cited from earlier work
[13] = test system: CYP1A2; parameters: method as in PMID 23132334; conditions: in vitro; cited from earlier work
[14] = test system: CYP2B6; parameters: method as in PMID 23132334; conditions: in vitro; cited from earlier work
[15] = parameters: method as in PMID 19884365; conditions: healthy subjects; cited from earlier work
[16] = parameters: method as in earlier work; conditions: SAILING, DTG 50 mg once daily with EFV- or TPV/r-containing background regimens, n=16; cited from earlier work
[17] = test system: HIV; parameters: method as in earlier work; conditions: SAILING, cited from earlier work
[18] = cited from earlier work
[19] = parameters: method as in PMID 23075918; conditions: DTG 50 mg twice daily with rifampin; cited from earlier work
[20] = test system: CYP3A4; conditions: in vivo; cited from earlier work
[21] = test system: OATP1B1; conditions: cited from earlier work
[22] = test system: CYP3A4; conditions: cited from earlier work
[23] = plasma, DTG 50 mg + EFV 600 mg q24h for 14 days, n=12, geometric mean (CV%)
[24] = plasma, DTG 50 mg q24h alone for 5 days, n=12, geometric mean (CV%)
[25] = co-administration of EFV 600 mg q24h and DTG 50 mg q24h

C[C@@H]1CCO[C@H]2Cn3cc(C(=O)NCc4ccc(F)cc4F)c(=O)c(O)c3C(=O)N12 [DTG, Dolutegravir]
GLS mean ratio (90 % CI) of AUC(0–τ) ([1]; DTG+EFV vs DTG alone, n=12): 0.431 (0.346, 0.536)
GLS mean ratio (90 % CI) of C max ([1]; DTG+EFV vs DTG alone, n=12): 0.608 (0.506, 0.730)
GLS mean ratio (90 % CI) of C τ ([1]; DTG+EFV vs DTG alone, n=12): 0.245 (0.179, 0.336)
Cmax ([1]; DTG 50 mg q24h alone for 5 days, healthy subjects n=12, plasma, geometric mean (CV%)): 3.08 µg/mL
Cmax [1, 23]: 1.87 µg/mL
AUC [1, 23]: 18.2 µg·h/mL
concentration at 24 h [1, 23]: 0.22 µg/mL
Tmax ([1]; plasma, DTG 50 mg + EFV 600 mg q24h for 14 days): 1 h
AUC [1, 24]: 42.3 µg·h/mL
concentration at 24 h [1, 24]: 0.91 µg/mL
Tmax ([1]; plasma, DTG 50 mg q24h alone for 5 days): 2 h
decrease in plasma DTG AUC(0–τ) [1, 25]: 57%
decrease in plasma DTG C max [1, 25]: 39%
decrease in plasma DTG C τ [1, 25]: 75%
share of drug-related material in plasma [2]: > 97%
% DTG ([3]; DTG 50 mg + EFV q24h): 100%
% Total drug-related response ([3]; DTG 50 mg + EFV q24h): 6.2 (5.0) %
% DTG ([3]; DTG 50 mg q24h): 100%
% Total drug-related response ([3]; DTG 50 mg q24h): 6.4 (1.8) %
subjects reporting at least one AE [4]: 17%
tolerability ([4]; repeat doses): generally well tolerated
subjects reporting headache [5]: 11%
direct inhibition of CYP isozymes [6]: minimal or no direct inhibition
direct inhibition of UGT1A1 [7]: minimal or no direct inhibition
direct inhibition of UGT2B7 [8]: minimal or no direct inhibition
direct inhibition of P-gp [9]: minimal or no direct inhibition
direct inhibition of BCRP [10]: minimal or no direct inhibition
direct inhibition of OATP1B3 [11]: minimal or no direct inhibition
direct inhibition of MRP2 [12]: minimal or no direct inhibition
induction of CYP1A2 [13]: not an inducer
induction of CYP2B6 [14]: not an inducer
effect on midazolam exposure [15]: no significant effect
lower average DTG pre-dose (C 0) concentration [16]: 78%
pre-dose (C 0) concentration, geometric mean [16]: 0.186 µg/mL
week 48 Snapshot response rate ([17]; DTG 50 mg once daily with EFV- or TPV/r-containing background regimens, n=16): 56.3%
week 48 Snapshot response rate ([17]; subjects not on these inducers or inhibitors (atazanavir and atazanavir/ritonavir)): 74.4%
C0 ([18]; DTG 50 mg once daily without inducers, phase III studies in INI-naive populations): approximately 1.2 μg/mL
C0 (equivalent to C τ), geometric mean ([18]; VIKING-3, DTG 50 mg twice daily with EFV and TPV/r in background regimens, n=18, CV 63 %): 1.62 µg/mL
C0 higher than with DTG 50 mg once daily without inducers ([18]; VIKING-3, DTG 50 mg twice daily with EFV and TPV/r in background regimens, n=18): 35%
C τ higher than with DTG 50 mg once daily alone [19]: 22%
component of metabolism via CYP3A4 [20]: ~10%
direct inhibition of OATP1B1 [21]: minimal or no direct inhibition
induction of CYP3A4 [22]: not an inducer
